Measured values: US8071763B2, “Methods for treatment of nocturia” (Daiichi Sankyo Company, Limited, priority 2002, dated 2011)

Test system: patients with nocturia
Assay: Continuation and termination of loxoprofen administration after the trial treatment
Assay type: in vivo, human
Method: After the initial study, loxoprofen was administered at the patients' discretion; 101 continued loxoprofen therapy for =320 (mean 61) days. After the evaluation, loxoprofen therapy was continued or not according to the patients' wishes (Table 5). Of 101 excellent and improved patients, 11 continued to take loxoprofen every night and 43 when necessary. The improvement of nocturia lasted for several months even after discontinuation of therapy in 11 (10%) who discontinued loxoprofen after 5 to 310 days' administration. In addition, in five patients in whom loxoprofen's effectiveness reduced after continuous administration, the effectiveness recovered with occasional administration following withdrawal for several weeks.

[1] = discontinued after 5 to 310 days' administration
[2] = patients with Excellent Response
[3] = patients with Improved Response

## CC(C(=O)O)c1ccc(CC2CCCC2=O)cc1 (centres unmarked) [loxoprofen, loxoprofen sodium]
[1]
  Improvement of nocturia lasted for several months after discontinuation of therapy, % of patients: 10%
  Improvement of nocturia lasted for several months after discontinuation of therapy, no. of patients: 11
Following withdrawal for several weeks
  Effectiveness reduced after continuous administration and recovered with occasional administration, no. of patients: five
[2]
  Discontinued therapy due to adverse events, no. of patients: 1
  Discontinued therapy: cured or stable improvement, no. of patients: 7
[3]
  Discontinued therapy due to adverse events, no. of patients: 9
  Discontinued therapy: cured or stable improvement, no. of patients: 4
  Discontinued therapy: reduced efficacy, no. of patients: 2
